PubChem BioAssay (NCI)
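Five compound concentrations were applied to cells in 96-well plates for 48 hours; endpoints were derived by simple linear interpolation of the resulting dose-response curve. GI50 marks 50% less growth. TGI: concentration producing complete growth inhibition.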

What was measured:
Experiment in all cases: inhibition of tumour cell growth, NCI panel, 48 h
HOP-62 NSCLC = tested on: HOP-62 NSCLC
OVCAR-4 ovarian = tested on: OVCAR-4 ovarian
MALME-3M melanoma = tested on: MALME-3M melanoma
DU-145 prostate = tested on: DU-145 prostate
A549 NSCLC = tested on: A549 NSCLC
SW-620 colon = tested on: SW-620 colon
MCF7 breast = tested on: MCF7 breast
SN12C renal = tested on: SN12C renal
UO-31 renal = tested on: UO-31 renal
COLO 205 colon = tested on: COLO 205 colon
MDA-MB-435 = tested on: MDA-MB-435
NCI/ADR-RES ovarian = tested on: NCI/ADR-RES ovarian
HCC-2998 colon = tested on: HCC-2998 colon
M14 melanoma = tested on: M14 melanoma
HT29 colon = tested on: HT29 colon
UACC-257 melanoma = tested on: UACC-257 melanoma
T-47D breast = tested on: T-47D breast
SF-295 CNS = tested on: SF-295 CNS
SK-MEL-28 melanoma = tested on: SK-MEL-28 melanoma
NCI-H522 lung = tested on: NCI-H522 lung
SK-OV-3 ovarian = tested on: SK-OV-3 ovarian
HL-60(TB) leukemia = tested on: HL-60(TB) leukemia
SNB-19 CNS = tested on: SNB-19 CNS
EKVX NSCLC = tested on: EKVX NSCLC
UACC-62 melanoma = tested on: UACC-62 melanoma
HS 578T breast = tested on: HS 578T breast
MOLT-4 leukemia = tested on: MOLT-4 leukemia
IGROV1 ovarian = tested on: IGROV1 ovarian
HOP-92 NSCLC = tested on: HOP-92 NSCLC
HCT-15 colon = tested on: HCT-15 colon
NCI-H460 lung = tested on: NCI-H460 lung
HCT-116 colon = tested on: HCT-116 colon
LOX IMVI melanoma = tested on: LOX IMVI melanoma
KM12 colon = tested on: KM12 colon
OVCAR-3 ovarian = tested on: OVCAR-3 ovarian
RPMI-8226 leukemia = tested on: RPMI-8226 leukemia
RXF 393 renal = tested on: RXF 393 renal
SF-268 CNS = tested on: SF-268 CNS
A498 renal = tested on: A498 renal
NCI-H23 lung = tested on: NCI-H23 lung
CCRF-CEM leukemia = tested on: CCRF-CEM leukemia
SK-MEL-5 melanoma = tested on: SK-MEL-5 melanoma
K-562 leukemia = tested on: K-562 leukemia
U251 CNS = tested on: U251 CNS
PC-3 prostate = tested on: PC-3 prostate
MDA-MB-231 breast = tested on: MDA-MB-231 breast
SF-539 CNS = tested on: SF-539 CNS
ACHN renal = tested on: ACHN renal
786-0 renal = tested on: 786-0 renal
OVCAR-8 ovarian = tested on: OVCAR-8 ovarian
SR leukemia = tested on: SR leukemia
CAKI-1 renal = tested on: CAKI-1 renal
SK-MEL-2 melanoma = tested on: SK-MEL-2 melanoma
SNB-75 CNS = tested on: SNB-75 CNS
BT-549 breast = tested on: BT-549 breast
TK-10 renal = tested on: TK-10 renal
NCI-H226 lung = tested on: NCI-H226 lung
OVCAR-5 ovarian = tested on: OVCAR-5 ovarian

O=C(NNc1nc2cc(F)c(F)cc2n2cccc12)c1ccncn1
GI50 (HOP-62 NSCLC): 0.199 µM
TGI (HOP-62 NSCLC): 6.66 µM
GI50 (OVCAR-4 ovarian): 0.18 µM
TGI (OVCAR-4 ovarian): 3.61 µM
GI50 (MALME-3M melanoma): 1.5 µM
TGI (MALME-3M melanoma): 6.77 µM
GI50 (DU-145 prostate): 0.4 µM
TGI (DU-145 prostate): 18.2 µM
GI50 (A549 NSCLC): 0.275 µM
TGI (A549 NSCLC): 20.2 µM
GI50 (SW-620 colon): 0.313 µM
TGI (SW-620 colon): 12.2 µM
GI50 (MCF7 breast): 0.235 µM
TGI (MCF7 breast): 3.93 µM
GI50 (SN12C renal): 0.678 µM
TGI (SN12C renal): 9.34 µM
GI50 (UO-31 renal): 0.14 µM
TGI (UO-31 renal): 4.19 µM
GI50 (COLO 205 colon): 0.313 µM
TGI (COLO 205 colon): 4.06 µM
GI50 (MDA-MB-435): 1.12 µM
TGI (MDA-MB-435): 6.96 µM
GI50 (NCI/ADR-RES ovarian): 0.225 µM
TGI (NCI/ADR-RES ovarian): 6.33 µM
GI50 (HCC-2998 colon): 0.452 µM
TGI (HCC-2998 colon): 4.55 µM
GI50 (M14 melanoma): 0.37 µM
TGI (M14 melanoma): 8.6 µM
GI50 (HT29 colon): 0.395 µM
TGI (HT29 colon): 15.3 µM
GI50 (UACC-257 melanoma): 0.926 µM
TGI (UACC-257 melanoma): 5.88 µM
GI50 (T-47D breast): 0.353 µM
TGI (T-47D breast): 5.17 µM
GI50 (SF-295 CNS): 0.156 µM
TGI (SF-295 CNS): 3.87 µM
GI50 (SK-MEL-28 melanoma): 0.771 µM
TGI (SK-MEL-28 melanoma): 6.35 µM
GI50 (NCI-H522 lung): 0.803 µM
TGI (NCI-H522 lung): 11.6 µM
GI50 (SK-OV-3 ovarian): 0.522 µM
TGI (SK-OV-3 ovarian): 5.16 µM
GI50 (HL-60(TB) leukemia): 0.39 µM
TGI (HL-60(TB) leukemia): > 14.8 µM
GI50 (SNB-19 CNS): 0.417 µM
TGI (SNB-19 CNS): 10.6 µM
GI50 (EKVX NSCLC): 0.255 µM
TGI (EKVX NSCLC): 4.93 µM
GI50 (UACC-62 melanoma): 0.333 µM
TGI (UACC-62 melanoma): 5.14 µM
GI50 (HS 578T breast): 2.94 µM
TGI (HS 578T breast): 20.4 µM
GI50 (MOLT-4 leukemia): 0.179 µM
TGI (MOLT-4 leukemia): > 30 µM
GI50 (IGROV1 ovarian): 0.206 µM
TGI (IGROV1 ovarian): 4.87 µM
GI50 (HOP-92 NSCLC): 0.697 µM
TGI (HOP-92 NSCLC): 6.38 µM
GI50 (HCT-15 colon): 0.119 µM
TGI (HCT-15 colon): 5.52 µM
GI50 (NCI-H460 lung): 0.161 µM
TGI (NCI-H460 lung): 9.46 µM
GI50 (HCT-116 colon): 0.217 µM
TGI (HCT-116 colon): 5.43 µM
GI50 (LOX IMVI melanoma): 0.191 µM
TGI (LOX IMVI melanoma): 5.11 µM
GI50 (KM12 colon): 0.331 µM
TGI (KM12 colon): 12.5 µM
GI50 (OVCAR-3 ovarian): 0.301 µM
TGI (OVCAR-3 ovarian): 5.16 µM
GI50 (RPMI-8226 leukemia): 0.571 µM
TGI (RPMI-8226 leukemia): > 20.9 µM
GI50 (RXF 393 renal): 0.834 µM
TGI (RXF 393 renal): 5.16 µM
GI50 (SF-268 CNS): 0.408 µM
TGI (SF-268 CNS): 9.39 µM
GI50 (A498 renal): 1.14 µM
TGI (A498 renal): 5.62 µM
GI50 (NCI-H23 lung): 1.26 µM
TGI (NCI-H23 lung): 11.5 µM
GI50 (CCRF-CEM leukemia): 0.142 µM
TGI (CCRF-CEM leukemia): > 30 µM
GI50 (SK-MEL-5 melanoma): 0.745 µM
TGI (SK-MEL-5 melanoma): 5.12 µM
GI50 (K-562 leukemia): 0.173 µM
TGI (K-562 leukemia): > 30 µM
GI50 (U251 CNS): 0.182 µM
TGI (U251 CNS): 7.02 µM
GI50 (PC-3 prostate): 0.309 µM
TGI (PC-3 prostate): > 13.4 µM
GI50 (MDA-MB-231 breast): 0.839 µM
TGI (MDA-MB-231 breast): 6.95 µM
GI50 (SF-539 CNS): 0.596 µM
TGI (SF-539 CNS): 6.3 µM
GI50 (ACHN renal): 0.187 µM
TGI (ACHN renal): 3.93 µM
GI50 (786-0 renal): 1.01 µM
TGI (786-0 renal): 6.64 µM
GI50 (OVCAR-8 ovarian): 0.253 µM
TGI (OVCAR-8 ovarian): 9.55 µM
GI50 (SR leukemia): 0.146 µM
TGI (SR leukemia): > 12.3 µM
GI50 (CAKI-1 renal): 0.286 µM
TGI (CAKI-1 renal): 4.22 µM
GI50 (SK-MEL-2 melanoma): 3.52 µM
TGI (SK-MEL-2 melanoma): 11.5 µM
GI50 (SNB-75 CNS): 0.365 µM
TGI (SNB-75 CNS): 6.35 µM
GI50 (BT-549 breast): 1.4 µM
TGI (BT-549 breast): 8.94 µM
GI50 (TK-10 renal): 0.547 µM
TGI (TK-10 renal): 5.18 µM
GI50 (NCI-H226 lung): 0.381 µM
TGI (NCI-H226 lung): 5.66 µM
GI50 (OVCAR-5 ovarian): 1.19 µM
TGI (OVCAR-5 ovarian): 11.4 µM
